{"source": "patent US11236106B2", "about": "“Cycloalkane-1,3-diamine derivative” (Daiichi Sankyo Company, Limited, priority 2018, dated 2022)", "key": {"[1]": {"tested_on": "MV-4-11 cells", "assay": "Antitumor activity in MV-4-11 cell subcutaneous transplant model (Experimental Example 3-4)", "type": "in vivo, mice", "settings": "Exp. Ex. 3-4, oral, 32 days after transplantation", "method": "MV-4-11 cells were purchased from ATCC. The female FOX CHASE SCID C.B.17/Icr-scid/scidJcl mice were purchased from Claire Japan. […] The compound was administered as a suspension in 0.5% MC. For the compound-free group, 0.5% MC was administered as a solvent. The estimated individual tumor volume was measured from the day of the grouping to 32 days after the transplantation (test end date).\n(§1) Tumor growth inhibitory rate %=(1−TVCt/TVCc)×100 TVC=(Individual tumor volume on the test end date)−(Individual tumor volume on the grouping date) TVCt: TVC mean value of the compound administration group TVCc: TVC mean value of the compound-free group"}, "[2]": {"biological_target": "T1, menin and MLL (menin, Flag tagged; biotinylated MLL1 peptide 1-46aa) (Homo sapiens, UniProt O00255)", "T1 sequence (O00255 1-610)": "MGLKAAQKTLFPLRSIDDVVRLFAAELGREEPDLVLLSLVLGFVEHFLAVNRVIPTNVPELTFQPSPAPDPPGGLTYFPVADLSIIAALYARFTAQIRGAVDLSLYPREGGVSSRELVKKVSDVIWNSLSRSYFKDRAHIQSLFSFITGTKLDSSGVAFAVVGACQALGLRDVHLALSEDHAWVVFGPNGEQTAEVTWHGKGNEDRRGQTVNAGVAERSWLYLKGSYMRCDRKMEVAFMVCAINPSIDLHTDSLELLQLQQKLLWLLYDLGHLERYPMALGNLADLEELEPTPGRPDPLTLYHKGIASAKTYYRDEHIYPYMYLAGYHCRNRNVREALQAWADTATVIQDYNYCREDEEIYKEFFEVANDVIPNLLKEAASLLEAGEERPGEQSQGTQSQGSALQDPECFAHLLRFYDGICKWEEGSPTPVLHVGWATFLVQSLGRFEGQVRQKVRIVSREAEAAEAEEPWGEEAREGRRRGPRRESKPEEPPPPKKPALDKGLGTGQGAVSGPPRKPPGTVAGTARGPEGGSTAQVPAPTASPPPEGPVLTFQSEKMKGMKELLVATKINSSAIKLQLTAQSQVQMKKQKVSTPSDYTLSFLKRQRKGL", "assay": "biochemical", "settings": "AlphaLISA, 1 nM menin, 10 nM biotinylated MLL1 peptide; for pIC50: IC50, binding inhibitory activity between menin and MLL; for IC50: cell free IC50 (nM)", "procedure": "Then, the fluorescence signal by AlphaLISA (registered trademark, PerkinElmer Co., Ltd.) was measured using a plate reader (PerkinElmer Co., Ltd., EnVisionXcite)."}, "[3]": {"tested_on": "MV-4-11 cells", "settings": "Exp. Ex. 3-3, oral, 31 days after transplantation", "procedure": "MV-4-11 cells were purchased from ATCC. The female FOX CHASE SCID C.B.17/Icr-scid/scidJcl mice were purchased from Claire Japan. […] The compound was administered as a suspension in 0.5% MC. For the compound-free group, 0.5% MC was administered as a solvent. The estimated individual tumor volume was measured from the day of the grouping to 31 days after the transplantation (test end date)."}, "[4]": {"tested_on": "MV-4-11 cells", "assay": "Cell growth inhibitory activity, MV-4-11 cells (Experimental Example 7, 96-well)", "type": "cell-based", "settings": "Homo sapiens, MV4-11, 168 h, day 7, Sigmoid Emax model", "method": "(§2) A solution of each concentration (MV-4-11 and MOLM-13: common ratio of 3, 9 concentrations from the final concentration of 1 μM, K562: common ratio of 3, 9 concentrations from the final concentration of 10 μM) of a drug (the compound of Example 131) or a growth medium containing 0.2% DMSO was added to each well at 50 μL/well, and the cells were cultured for additional 7 days."}, "[5]": {"tested_on": "K562 cells", "assay": "Cell growth inhibitory activity, K562 cells (Experimental Example 7, 96-well)", "type": "cell-based", "settings": "Homo sapiens, 168 h, day 7, linear regression", "method": "as §2"}, "[6]": {"tested_on": "MOLM-13 cells", "assay": "Cell growth inhibitory activity, MOLM-13 cells (Experimental Example 7, 96-well)", "type": "cell-based", "settings": "Homo sapiens, 168 h, day 7, Sigmoid Emax model", "method": "as §2"}, "[7]": {"tested_on": "MLL-AF9-overexpressing AML-like cells (MA9 cells)", "assay": "Differentiation-inducing activity in MLL-AF9-overexpressing AML-like cells (flow cytometry of Gr-1 and cKit)", "type": "cell-based, mouse", "settings": "7 days, 5 or 20 nM (Ex. 25, 27), 150 or 300 nM (Ex. 26), 50 or 100 nM (Ex. 22); for rate of the myeloid cell differentiation antigen Gr-1-expressing cells in living cells: versus control group (FIG. 10); for rate of the cKit-expressing cells in living cells: versus control group (FIG. 11)", "method": "The human MLL-AF9 fusion gene was introduced into cKit-positive mononuclear cells isolated from the myeloid of C57BL6 mouse, by retrovirus infection. MLL-AF9-overexpressing AML-like cells (MA9 cells) that acquired abnormal growth ability were established by liquid-culturing the cells after virus infection for a long period of time. Serum-free medium (GlutaMax, P/S, Stem Pro-34 medium containing 10 ng/ml mIL-3, ng/mL mSCF and 10 ng/mL human Oncostatin M) was used as a culture medium.\nFor the control group, DMSO was added thereto at a final concentration of 0.1% (2 μL/well) (day 0). After culturing for 7 days (day 7), the cells were collected, and blocked with 5% FBS/PBS containing 10% Mouse BD Fc Block (BD) for 10 minutes at room temperature, and then any of various antibodies (Gr-1-FITC or CD117 (cKit)-APC: Biolegend) was added thereto at a final concentration of 0.4 μg/sample, and the mixture was reacted on ice for 30 minutes. Then, dead cell staining dye DAPI (0.2 mg/mL) was added thereto at so as to be […], and the reaction was carried out on ice for additional 2 minutes under shading. Then, the expression level of each surface antigen of the cells was measured by NovoCyte flow cytometer (LMS). The obtained data were analyzed by FlowJo software (Becton Dickinson), and the rate of each surface antigen-expressing cells in the living cells excluding dead cells was graphed."}, "[8]": {"tested_on": "MV-4-11 cells", "settings": "read-out: GI50, cell growth inhibitory activity, MV-4-11, day 7, cultured 7 days, assigned by order and values, Hydrochloride", "procedure": "(§3) RPMI1640 medium supplemented with 10% FBS was used as a culture medium for each cells (MV-4-11, MOLM-13 cells, human AML cells, K562 cells, human CML cells). […] The prepared drug-containing plate was stored at −30° C. until use, and thawed before use.\n(§4) The suspension of each cells was prepared with 10% FBS RPMI1640 culture medium so as to be 1000 cells/mL (K562) or 10000 cells/mL (MV-4-11, MOLM-13), and seeded on the drug-containing plate (40 μL/well) (day 0). The cells were cultured for additional 3 or 7 days. ATP measurement reagent (CellTiter-Glo (registered trademark, Promega Corporation) 2.0 Assay, model number G9242, Promega Corporation) was added to each well at 10 μL/well, on the day of the drug addition (day 0) and 3 days (day 3) or 7 days (day 7) after the drug addition. After affixing a black sticker on the bottom surface, the mixture was stirred using a microplate mixing deaeration machine (model name, Weltornado FK-62, Sakaki Dengyo Co., Ltd.) (stirring conditions, revolution 9, rotation 7, time 12).\n(§5) The cell growth of the drug-added group from day 0 to day 3 or day 7 was calculated as T/C %, when the cell growth of the drug-free group was considered as 100%."}, "[9]": {"tested_on": "K562 cells", "assay": "cells", "settings": "Homo sapiens, K562, 168 h, read-out: GI50, cell growth inhibitory activity, K562, day 7", "procedure": "as §3, §4, §5"}, "[10]": {"tested_on": "MV-4-11 cells", "assay": "Antitumor activity in MV-4-11 cell subcutaneous transplant model (Experimental Example 3-2)", "type": "in vivo, mice", "settings": "Exp. Ex. 3-2, oral, 34 days after transplantation", "method": "MV-4-11 cells were purchased from ATCC. The female FOX CHASE SCID C.B.17/Icr-scid/scidJcl mice were purchased from Claire Japan. […] The compound was administered as a suspension in 0.5% MC. For the compound-free group, 0.5% MC was administered as a solvent. The estimated individual tumor volume was measured from the day of the grouping to 34 days after the transplantation (test end date).\nas §1"}}, "note": "pIC50: −log10 of the molar value. Where a name gives a salt, the structure may show the parent alone. Read-outs that look alike come from different tables or passages of the source."}
{"smiles": "COc1cc(-c2ccc(CN[C@H]3C[C@@H](O)[C@@H](N(C)c4ncnc5sc(CC(F)(F)F)cc45)C3)cc2)cnc1OC.Cl", "note": "[Example 67, (1R,2S,4R)-4-({[4-(5,6-dimethoxypyridin-3-yl)phenyl]methyl}amino)-2-{methyl[6-(2,2,2-trifluoroethyl)thieno[2,3-d]pyrimidin-4-yl]amino}cyclopentan-1-ol hydrochloride]", "values": [{"measurement": "Estimated tumor volume (test end date) Mean ± S.E.", "setting": "[1]; qdx16, 25 mg/kg/day", "result": "896 ± 56"}, {"measurement": "Estimated tumor volume (test end date) Mean ± S.E.", "setting": "[1]; qdx16, 50 mg/kg/day", "result": "381 ± 59"}, {"measurement": "Estimated tumor volume (test end date) Mean ± S.E.", "setting": "[1]; qdx16, 100 mg/kg/day", "result": "0 ± 0"}, {"measurement": "pIC50", "setting": "[2]", "result": 8.68}]}
{"smiles": "CN(c1ncnc2sc(CC(F)(F)F)cc12)[C@H]1C[C@@H](NCc2ccc(-c3cccc4c3cnn4S(C)(=O)=O)cc2)C[C@H]1O", "note": "[Example 23, (1R,2S,4R)-4-[({4-[1-(methanesulfonyl)-1H-indazol-4-yl]phenyl}methyl)amino]-2-{methyl[6-(2,2,2-trifluoroethyl)thieno[2,3-d]pyrimidin-4-yl]amino}cyclopentan-1-ol Hydrochloride]", "values": [{"measurement": "IC50", "setting": "[2]", "result": 2.8, "unit": "nM"}, {"measurement": "Estimated tumor volume (test end date) Mean ± S.E.", "setting": "[3]; qdx17, 25 mg/kg/day", "result": "616 ± 86"}, {"measurement": "Estimated tumor volume (test end date) Mean ± S.E.", "setting": "[3]; qdx17, 50 mg/kg/day", "result": "31 ± 10"}, {"measurement": "Estimated tumor volume (test end date) Mean ± S.E.", "setting": "[3]; qdx17, 100 mg/kg/day", "result": "0 ± 0"}]}
{"smiles": "COc1cc(-c2ccc(CN[C@H]3C[C@@H](O)[C@@H](N(C)c4ncnc5sc(CC(F)(F)F)cc45)C3)cc2)cnc1F.Cl", "note": "[Example 68, (1R,2S,4R)-4-({[4-(6-fluoro-5-methoxypyridin-3-yl)phenyl]methyl}amino)-2-{methyl[6-(2,2,2-trifluoroethyl)thieno[2,3-d]pyrimidin-4-yl]amino}cyclopentan-1-ol hydrochloride]", "values": [{"measurement": "pIC50", "setting": "[2]", "result": 8.77}, {"measurement": "Estimated tumor volume (test end date) Mean ± S.E.", "setting": "[3]; qdx17, 25 mg/kg/day", "result": "1151 ± 142"}, {"measurement": "Estimated tumor volume (test end date) Mean ± S.E.", "setting": "[3]; qdx17, 50 mg/kg/day", "result": "559 ± 104"}, {"measurement": "Estimated tumor volume (test end date) Mean ± S.E.", "setting": "[3]; qdx17, 100 mg/kg/day", "result": "31 ± 23"}]}
{"smiles": "COc1cc(-c2ccc(CN[C@H]3C[C@@H](O)[C@@H](N(C)c4ncnc5sc(CC(F)(F)F)cc45)C3)cc2)nnc1OC", "note": "[Example 131, (1R,2S,4R)-4-({[4-(5,6-dimethoxypyridazin-3-yl)phenyl]methyl}amino)-2-{methyl[6-(2,2,2-trifluoroethyl)thieno[2,3-d]pyrimidin-4-yl]amino}cyclopentan-1-ol Succinate]", "values": [{"measurement": "GI50", "setting": "[4]", "result": 1.97, "unit": "nM"}, {"measurement": "GI50", "setting": "[5]", "result": 9110, "unit": "nM"}, {"measurement": "GI50", "setting": "[6]", "result": 10.1, "unit": "nM"}]}
{"smiles": "COc1cc(-c2ccc(CN[C@H]3C[C@@H](O)[C@@H](N(C)c4ncnc5sc(CC(F)(F)F)cc45)C3)cc2)cnc1C.Cl", "note": "[Example 60, (1R,2S,4R)-4-({[4-(5-methoxy-6-methylpyridin-3-yl)phenyl]methyl}amino)-2-{methyl[6-(2,2,2-trifluoroethyl)thieno[2,3-d]pyrimidin-4-yl]amino}cyclopentan-1-ol hydrochloride]", "values": [{"measurement": "Estimated tumor volume (test end date) Mean ± S.E.", "setting": "[1]; qdx16, 25 mg/kg/day", "result": "558 ± 79"}, {"measurement": "Estimated tumor volume (test end date) Mean ± S.E.", "setting": "[1]; qdx16, 50 mg/kg/day", "result": "25 ± 11"}, {"measurement": "Estimated tumor volume (test end date) Mean ± S.E.", "setting": "[1]; qdx16, 100 mg/kg/day", "result": "0 ± 0"}, {"measurement": "IC50", "setting": "[2]", "result": 2.4, "unit": "nM"}]}
{"smiles": "COc1nc(N(C)[C@H]2C[C@@H](NCc3ccc(-c4cc(OC)c(OC)nn4)cc3)C[C@H]2O)c2cc(CC(F)(F)F)sc2n1", "note": "[Example 27, (1R,2S,4R)-4-({[4-(5,6-dimethoxypyridazin-3-yl)phenyl]methyl}amino)-2-{[2-methoxy-6-(2,2,2-trifluoroethyl)thieno[2,3-d]pyrimidin-4-yl](methyl)amino}cyclopentan-1-ol Hydrochloride]", "values": [{"measurement": "IC50", "setting": "[2]", "result": 1.3, "unit": "nM"}, {"measurement": "rate of the myeloid cell differentiation antigen Gr-1-expressing cells in living cells", "setting": "[7]", "result": "increased the rate of Gr-1-positive cells"}, {"measurement": "rate of the cKit-expressing cells in living cells", "setting": "[7]", "result": "reduced the rate of cKit-positive cells"}]}
{"smiles": "COc1nc(N(C)C2CC(NCC3CCC(c4cc(OC)c(OC)nn4)CC3)CC2O)c2cc(CC(F)(F)F)sc2n1", "note": "(single isomer, unassigned) [Example 128A, Hydrochloride]", "values": [{"measurement": "GI50", "setting": "[8]", "result": 728, "unit": "nM"}, {"measurement": "pIC50", "setting": "[2]", "result": 7.74}, {"measurement": "GI50", "setting": "[9]", "result": "> 5000", "unit": "nM"}]}
{"smiles": "COc1cc(-c2ccc(CN[C@H]3C[C@@H](O)[C@@H](N(C)c4ncnc5sc(CC(F)(F)F)cc45)C3)cc2)cnc1C#N", "note": "[Example 22, 5-[4-({[(1R,3R,4S)-3-hydroxy-4-{methyl[6-(2,2,2-trifluoroethyl)thieno[2,3-d]pyrimidin-4-yl]amino}cyclopentyl]amino}methyl)phenyl]-3-methoxypyridine-2-carbonitrile Hydrochloride]", "values": [{"measurement": "IC50", "setting": "[2]", "result": 3.8, "unit": "nM"}, {"measurement": "rate of the myeloid cell differentiation antigen Gr-1-expressing cells in living cells", "setting": "[7]", "result": "increased the rate of Gr-1-positive cells"}, {"measurement": "rate of the cKit-expressing cells in living cells", "setting": "[7]", "result": "reduced the rate of cKit-positive cells"}]}
{"smiles": "COc1cc(-c2ccc(CN[C@H]3C[C@@H](O)[C@@H](N(C)c4ncnc5sc(CC(F)(F)F)cc45)C3)cc2)nnc1OC", "note": "[Example 25, (1R,2S,4R)-4-({[4-(5,6-dimethoxypyridazin-3-yl)phenyl]methyl}amino)-2-{methyl[6-(2,2,2-trifluoroethyl)thieno[2,3-d]pyrimidin-4-yl]amino}cyclopentan-1-ol Hydrochloride]", "values": [{"measurement": "rate of the myeloid cell differentiation antigen Gr-1-expressing cells in living cells", "setting": "[7]", "result": "increased the rate of Gr-1-positive cells"}, {"measurement": "rate of the cKit-expressing cells in living cells", "setting": "[7]", "result": "reduced the rate of cKit-positive cells"}, {"measurement": "Estimated tumor volume (test end date) Mean ± S.E.", "setting": "[10]; qdx18, 25 mg/kg/day", "result": "250 ± 38"}, {"measurement": "Estimated tumor volume (test end date) Mean ± S.E.", "setting": "[10]; qdx18, 50 mg/kg/day", "result": "0 ± 0"}, {"measurement": "Estimated tumor volume (test end date) Mean ± S.E.", "setting": "[10]; qdx18, 100 mg/kg/day", "result": "0 ± 0"}]}
